Tests used:
Cox-1 = molecular target: T1, Cox-1 (Homo sapiens, UniProt P23219); experiment: Cox-1 activity in human whole blood (TXB2); format: cell-based; conditions: read-out: hWB inhibition COX-1 IC50
T1 construct: from tissue; host or cells: fresh human whole blood
Description: (§1) II. Determination of Cox-1- and Cox-2-Activity in Human Whole Blood
(§2) The Cox-1- and Cox-2-activity in human whole blood is determined according to a modification of the method described in the publication of C. Brideau et al., “A human whole blood assay for clinical evaluation of biochemical efficacy of cyclooxygenase inhibitors”, Inflamm Res 1996; 45: 68-74. The respective part of the description is hereby incorporated by reference and forms part of the present disclosure.
For Cox-1 activity determination, fresh human blood is distributed in a volume of 0.5 ml to silicone Eppendorf tubes, into which 2 μl of the compound to be tested or dimethylsulfoxide (DMSO) at a final concentration of 0.4% (volume/volume). The tubes are inverted for homogenization and incubated for 1 hour at 37° C. under slight stirring. Afterwards they are centrifuged for 15 min at 10500 g and 100 μl of serum is collected. Proteins are precipitated by the addition of 400 μl of methanol to each tube, tubes were centrifuged for 10 minutes at 5000 g and 300 μl of supernatant is aspirated and then dried under nitrogen atmosphere.
Tromboxane B2 (TXB2) concentration is quantified using an assay kit (Caymann Chemical, Ann Arbor, Mich., U.S.A., Catalogue number 519031) after reconstitution into 300 μl assay buffer supplied in the assay kit.

[1] = test system: PGE2 production in rat inflammatory exudate; experiment: PGE2 production in rat inflammatory exudate; format: in vivo; conditions: rats, oral route, carrageenan sponge implant, read-out: PGE2 Inflam. exudade ED50
Description: VI: PGE2 Production in Rat Inflammatory Exudate and Gastric Mucosa
The PGE2 production in rat inflammatory exudate and gastric mucosa is carried out as described in the publication of O Tofanetti et al., “Effect of nimesulide on cyclo-oxygenase activity in rat gastric mucosa and inflammatory exudate”, Med Sci Res 17, 745-746 (1989). The respective part of the description is hereby incorporated by reference and forms part of the present disclosure.
For this text 6 male wistar rats (Interfauna-St Feliú de Codines, Barcelona) of approximately 200 g (each approximately 6 weeks of age) are used. The compounds to be tested are administered via oral route in gum Arabic at 5% (weight/volume) at a rate of 10 ml/kg.
One hour after administration of the compounds and under halothane anaesthesia, each rat is implanted subcutaneously in the interescapular area a 40×15×5 mm polyester sponge, soaked in a 0.5% suspension of carrageenan. Rats are sacrificed 6 hours after the implant, the sponges are removed and squeezed. The exudates are collected and centrifuged at 6000×G for 15 minutes.
The rats's stomachs are removed and the gastric mucosa is detached from the underlying layers and by means of a 10 mm diameter die, mucosa samples from an area between the gastric corpus and pyloric antrum are taken. The mucosal PGE2 is extracted. PGE2 concentrations from the inflammatory exudates and the gastric mucosa are determined by means of inmmunoassay reagents of Cayman Chemical kit, Ann Arbor, Mich., U.S.A. (Catalogue number: 514010) according to the manufacturer's instructions.

rats = experiment: Test for activity against edema in rats (carrageenin paw); format: in vivo; conditions: Rattus norvegicus, oral route
Description: IV. Test for Activity Against Edema in Rats
The test for activity against edema is carried out as described in the publication of Winter et al., Proc. Soc. Exp. Biol. Med. 111, 544-547, (1962). The respective part of the description is hereby incorporated by reference and forms part of the present disclosure.
At the beginning of each experimental session the rats are deprived of food, and kept in cages within groups of 5 animals, the cages being fitted with a grating on the floor to prevent coprophagy. After a period of 24 hours without food, the animals are marked in a suitable way, weighed and hydrated via oral administration of 30 ml/kg body weight of tap water. Half an hour after the hydratisation, the compounds to be tested are administered via oral route, in an amount of 10 ml/kg body weight as a suspension in gum arabic at 5% (weight/volume). One hour after administration of the compounds the animals receive 0.1 ml of the inflammation causing agent (carrageenin 1% weight/volume, in sterile solution), injected via subplantar route into the right hind paw of the rats. Immediately after the carrageenin injection the volume of the injected paw is determined using a plethysmometer. The readings are expressed in ml. Readings of the volume of the paw are taken every hour after administration of the carrageenin for 7 hours.

Cox-2 = molecular target: T2, Cox-2 (Homo sapiens, UniProt P35354); experiment: Cox-2 activity in human whole blood (LPS, PGE2); format: cell-based; conditions: read-out: hWB inhibition COX-2 IC50
T2 construct: 0.5 ml of fresh human blood; from tissue; host or cells: fresh human whole blood stimulated with E. coli 0111:B4 LPS
T2 sequence (P35354 18-604): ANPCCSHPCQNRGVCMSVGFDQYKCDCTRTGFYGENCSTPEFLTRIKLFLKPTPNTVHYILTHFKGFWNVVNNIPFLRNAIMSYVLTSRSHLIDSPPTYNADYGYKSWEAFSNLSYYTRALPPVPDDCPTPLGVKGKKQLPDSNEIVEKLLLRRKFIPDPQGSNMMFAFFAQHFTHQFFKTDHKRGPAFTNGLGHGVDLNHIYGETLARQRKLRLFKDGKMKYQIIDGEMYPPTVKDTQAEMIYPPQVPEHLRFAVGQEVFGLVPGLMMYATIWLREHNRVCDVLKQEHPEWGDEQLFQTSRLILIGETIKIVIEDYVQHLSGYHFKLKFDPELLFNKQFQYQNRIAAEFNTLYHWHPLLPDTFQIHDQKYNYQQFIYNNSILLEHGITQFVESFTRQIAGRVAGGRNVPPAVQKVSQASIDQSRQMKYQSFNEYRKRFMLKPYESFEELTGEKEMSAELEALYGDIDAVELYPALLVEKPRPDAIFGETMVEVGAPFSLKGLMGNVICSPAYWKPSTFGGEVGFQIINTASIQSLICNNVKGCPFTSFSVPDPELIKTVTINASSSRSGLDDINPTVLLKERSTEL
Description: as §1, §2
For Cox-2 activity determination, tubes are prepared with 2 μl of the compound to be tested or DMSO, 12 μg/ml of aspirine, 9 μl of 1% (weight/volume) sodium heparine and 0.5 ml of fresh human blood. Samples are pre-incubated at 37° C. during 15 minutes and E. coli 0111:B4 LPS (from Sigma Chemical, St. Louis, Mo. U.S.A., catalogue number L-3012) are added for incubation during 24 h at 37° C. The samples are centrifuged for 100 μl of plasma collection. 400 μl of Ethyl acetate and 1% (volume/volume) methanol are added to each sample and the tubes are stirred and centrifuged for 10 minutes at 5000 g at 4° C. 300μl of supernatant are aspirated and evaporated under nitrogen atmosphere. Prostaglandin E2 concentration is quantified using an assay kit from Cayman Chemical, Ann-Arbor, Mich., U.S.A. (Catalogue number: 514010 ) after reconstitution into 300 μl assay buffer supplied in the assay kit.

T1 sequence (P23219 24-599): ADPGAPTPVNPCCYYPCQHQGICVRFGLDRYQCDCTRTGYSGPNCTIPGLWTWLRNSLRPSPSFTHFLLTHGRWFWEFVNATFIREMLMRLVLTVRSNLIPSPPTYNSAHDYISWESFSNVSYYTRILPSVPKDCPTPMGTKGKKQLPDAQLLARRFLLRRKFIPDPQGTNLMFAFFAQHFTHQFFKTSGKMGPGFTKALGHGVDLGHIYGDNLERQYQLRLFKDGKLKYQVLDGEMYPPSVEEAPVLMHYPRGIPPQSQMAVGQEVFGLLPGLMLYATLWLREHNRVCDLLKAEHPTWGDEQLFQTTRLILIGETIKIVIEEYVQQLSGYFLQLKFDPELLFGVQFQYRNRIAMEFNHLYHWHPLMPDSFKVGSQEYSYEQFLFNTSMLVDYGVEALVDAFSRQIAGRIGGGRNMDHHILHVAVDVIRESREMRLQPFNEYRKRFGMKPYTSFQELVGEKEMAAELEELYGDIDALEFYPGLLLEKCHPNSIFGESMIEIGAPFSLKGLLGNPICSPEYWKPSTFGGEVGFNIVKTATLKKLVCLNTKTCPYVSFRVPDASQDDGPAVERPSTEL

CC(C)(C)c1cc(C(=O)N2CC(O)C2)cc(C(C)(C)C)c1 [Example 2, (3,5-di-tert-butyl-phenyly)-(3-hydroxy-azetidin-1-yl)-methanone]
IC50 (Cox-1): 500 nM | ED50 [1]: 5.9 mg/kg | ED50 (rats): 28 mg/kg | IC50 (Cox-2): 800 nM

CC1C(O)CN1C(=O)c1cc(C(C)(C)C)c(O)c(C(C)(C)C)c1 (centres unmarked) [Example 4, (3,5-di-tert-butyl-4-hydroxy-phenyl)-(3-hydroxy-2-methyl-azetidin-1-yl)-methanone]
IC50 (Cox-1): 500 nM | ED50 [1]: 5.8 mg/kg | ED50 (rats): 31 mg/kg | IC50 (Cox-2): 500 nM

CC(C)(C)c1cc(C(=O)N2CC(O)C2)cc2c1OCC2(C)C [Example 14, (7-tert-butyl-3,3-dimethyl-2,3-dihydro-benzofuran-5-yl)-(3-hydroxy-azetidin-1-yl)-methanone]
IC50 (Cox-1): 50 nM | ED50 [1]: 1.8 mg/kg | IC50 (Cox-2): 100 nM
